The text below walks through data of patent US11524943B1 (Vivace Therapeutics, Inc., priority 2017, dated 2022).

In general, IC50 refers to the midpoint of a concentration-inhibition curve. Lower therefore signals greater potency in that assay.

SMILES strings stand for the structures.

The test system of this experiment is HEK293T cells stably transfected with 8×TBD luciferase reporter and pRLTK. Kind of experiment: YAP Reporter Assay (8×TBD firefly luciferase reporter). Conditions: Homo sapiens, HEK-293T; HEK293T 8×TBD reporter cells, 24-hr incubation, top concentration 3 μM, 1:3 dilution, 10 points. In kind it is cell-based. On the procedure: HEK293T cells stably transfected with 8×TBD luciferase reporter and pRLTK in 384-well plates were treated with the test compounds, starting from 3 μM (final concentration in assay plate), 1:3 dilution, and 10 points in quadruplicates. Post 24-hr incubation with compounds at 37° C. and 5% CO2, cells were lysed and 8×TBD-driven firefly luciferase and control TK-driven renilla luciferase activities were measured using Promega Dual-Luciferase Reporter Assay System.
Reagents: The reagents used for this study are: DMEM: Invitrogen #11960077, Dual-Glo Luciferase Assay System: Promega-E2980, Puromycin Dihydrochloride: Invitrogen-A1113803, 384-well plate: PerkinElmer-6007480, L-GLUTAMINE: Invitrogen-25030164, Hygromycin B: Invitrogen-10687010, and Penicillin-Streptomycin: Merk-TMS-AB2-C
Media: The media used for this assay were: Culture Medium: DMEM+1 ug/mL puromycin+200 ug/mL hygromycin (with 10% FBS+1 mM L-glutamine); and Assay Medium: DMEM (with 10% FBS+1 mM L-glutamine+1×P/S).
Cell Plating: The appropriate media was warmed at 37° C. by water bath: Culture Medium, Assay Medium, 1*D-PBS, 0.05% trypsin-EDTA. The cells were trypsinized after removing all media, then washed with 1* sterile D-PBS and then with 2 ml 0.05% trypsin-EDTA. The cells were then incubated at RT for one minute. Then 10 ml/75 cm2 flask Assay Medium was added to each flask. Using a 10 ml pipette, the cells were then gently resuspended in the media, until the clumps completely disappeared. The cells were then transferred into 50 ml centrifuge tubes and were centrifuged at 800 rpm for 5 mins. The medium was removed and the cells were resuspended with Assay Medium. An aliquot of cells was used to count the cell density (cells/ml). The cell suspension was then diluted with Assay Medium to a concentration of 6×10^4 cells/ml. 50 ul cells suspension was then plated to 384-well plate (PerkinElmer-6007480), 3×10^3 cells/well and the cells were incubated in an incubator at 37° C., 5% CO2.
Compound Treatment: In the afternoon (incubation of the plate with 3-4 hrs), the test compounds were added by Echo, starting from 3 uM (final concentration in the assay plate), 1:3 dilution, 10 points, quadruplicates. The plate was placed at 37° C., 5% CO2 incubator for 24 hrs.
Detection: The Dual-Glo Luciferase Reagent was prepared by transferring the contents of one bottle of Dual-Glo Luciferase Buffer to one bottle of Dual-Glo Luciferase Substrate to create the Dual-Glo Luciferase Reagent. Mixing was performed by inversion until the substrate was thoroughly dissolved. After mixing, the reagent was aliquoted into 15 ml tubes. In the afternoon (24 hrs post compound treatment), the DMEM+ medium in the 384 well plates were aspirated by Microplate Washer.
Measuring firefly luciferase activity: 20 ul Dual-Glo Luciferase Reagent was added to the 384-well plates. The plates were protected from light to prevent interference with the assay. The plates were shaken for 1 min followed centrifuging plates at 1000 rpm for 30 seconds. After waiting at least 10 minutes, the firefly luminescence was measured by Envision.
Measuring renilla luciferase activity: 20 ul Stop-Glo Reagent was added to the 384-well plates. The plates were shaken for 1 min and then centrifuged at 1000 rpm for 30 seconds. After waiting at least 10 minutes, the renilla luminescence was measured by Envision.
Compound IC50 and maximum inhibition on the firefly luciferase and renilla luciferase activities were reported separately.
For `COC(=O)c1ccc(Nc2ccc(C(F)(F)F)cc2)c(-c2ccnc(N)c2)c1` [Compound 34, methyl 3-(2-amino-4-pyridyl)-4-[4-(trifluoromethyl)anilino] benzoate], the half-inhibitory concentration (IC50) is at most 0.1 µM.

In turn, `O=C(O)c1ccc(Nc2ccc(C(F)(F)F)cc2)c(-c2cnccn2)c1` [Compound 43, 3-(pyrazin-2-yl)-4-((4-(trifluoromethyl)phenyl)amino) benzoic acid] gave a half-inhibitory concentration (IC50) of at most 0.1 µM.

`O=C(O)c1ccc(Nc2ccc(C(F)(F)F)cc2)c(-c2nccs2)c1` [Compound 42, 3-(thiazol-2-yl)-4-((4-(trifluoromethyl)phenyl)amino) benzoic acid] yielded a half-inhibitory concentration (IC50) of at most 0.1 µM.

`CCN(CC)C(=O)c1ccc(Nc2ccc(C(F)(F)F)cc2)c(-c2nnn(C)n2)c1` [Compound 17, N,N-diethyl-3-(2-methyl-2H-tetrazol-5-yl)-4-((4-(trifluoromethyl)phenyl)amino) benzamide] had an IC50 of 0.1 to 1 µM.

Consider `O=C(O)c1ccc(Nc2ccc(C(F)(F)F)cc2)c(-c2cscn2)c1` [Compound 41, 3-(thiazol-4-yl)-4-((4-(trifluoromethyl)phenyl)amino) benzoic acid], for which the IC50 is at most 0.1 µM.

`COC(=O)c1ccc(Nc2ccc(C(F)(F)F)cc2)c(-c2cn(C)cn2)c1` [Compound 33, methyl 3-(1-methyl-1H-imidazol-4-yl)-4-((4-(trifluoromethyl)phenyl)amino)benzoate] came in with an IC50 of at most 0.1 µM.

In turn, `O=C(O)c1ccc(Nc2ccc(C(F)(F)F)cc2)c(-c2ncccn2)c1` [Compound 40, 3-(pyrimidin-2-yl)-4-((4-(trifluoromethyl)phenyl)amino) benzoic acid] displayed a 50% inhibitory concentration (IC50) of at most 0.1 µM.

In turn, `Cn1nnc(-c2cc(C(=O)NCCOCCOCCN)ccc2Nc2ccc(C(F)(F)F)cc2)n1` [Compound 44, N-(2-(2-(2-aminoethoxy)ethoxy)ethyl)-3-(2-methyl-2H-tetrazol-5-yl)-4-((4-(trifluoromethyl)phenyl)amino) benzamide] showed a 50% inhibitory concentration (IC50) of 0.1 to 1 µM.

On to `Cn1nnc(-c2cc(C(=O)NCCOCCOCCNC(=O)OC(C)(C)C)ccc2Nc2ccc(C(F)(F)F)cc2)n1` [Compound 47, tert-butyl (2-(2-(2-(3-(2-methyl-2H-tetrazol-5-yl)-4-((4-(trifluoromethyl)phenyl)amino)benzamido)ethoxy)ethoxy)ethyl)carbamate], for which the IC50 fell in the range of 0.1 to 1 µM.

`COC(=O)c1ccc(Nc2ccc(C(F)(F)F)cc2)c(-c2nnc(C3CC3)o2)c1` [Compound 53, methyl 3-(5-cyclopropyl-1,3,4-oxadiazol-2-yl)-4-((4-(trifluoromethyl)phenyl)amino)benzoate] gave an IC50 of at most 0.1 µM.

In turn, `O=C(O)c1ccc(Nc2ccc(C(F)(F)F)cc2)c(-c2nnc(C3CC3)s2)c1` [Compound 59, 3-(5-cyclopropyl-1,3,4-thiadiazol-2-yl)-4-((4-(trifluoromethyl)phenyl)amino) benzoic acid] showed a half-inhibitory concentration (IC50) of at most 0.1 µM.

`COC(=O)c1ccc(Nc2ccc(C(F)(F)F)cc2)c(-c2nnn(C)n2)c1` [Compound 1, methyl 3-(2-methyl-2H-tetrazol-5-yl)-4-((4-(trifluoromethyl)phenyl)amino)benzoate] had an IC50 of at most 0.1 µM.

`COC(=O)c1ccc(Nc2cccc(C(F)(F)F)c2)c(-c2nnn(C)n2)c1` [Compound 2, methyl 3-(2-methyl-2H-telrazol-5-yl)-4-((3-(trifluoromethyl)phenyl)amino)benzoate] had an IC50 of at most 0.1 µM.

In turn, `O=C(O)c1ccc(Nc2ccc(C(F)(F)F)cc2)c(-c2cc(Cl)ccn2)c1` [Compound 55, 3-(4-chloro-2-pyridyl)-4-[4-(trifluoromethyl)anilino] benzoic acid] had an IC50 of at most 0.1 µM.

`O=C(O)c1ccc(Nc2ccc(C(F)(F)F)cc2)c(-c2ccc(F)cn2)c1` [Compound 51, 3-(5-fluoro-2-pyridyl)-4-[4-(trifluoromethyl)anilino] benzoic acid] showed an IC50 of at most 0.1 µM.

`O=C(O)c1ccc(Nc2ccc(C(F)(F)F)cc2)c(-c2cccnn2)c1` [Compound 46, 3-pyridazin-3-yl-4-[4-(trifluoromethyl)anilino] benzoic acid] registered an IC50 of at most 0.1 µM.

Take `COCC(=O)NCCOCCOCCNC(=O)c1ccc(Nc2ccc(C(F)(F)F)cc2)c(-c2nnn(C)n2)c1` [Compound 64, 3-(2-methyl-2H-tetrazol-5-yl)-N-(4-oxo-2,8,11-trioxa-5-azatridecan-13-yl)-4-((4-(trifluoromethyl)phenyl)amino) benzamide]: the IC50 was 0.1 to 1 µM.

For `Cn1nnc(-c2cc(C(N)=O)ccc2Nc2ccc(C(F)(F)F)cc2)n1` [Compound 7, 3-(2-methyl-2H-tetrazol-5-yl)-4-((4-(trifluoromethyl)phenyl)amino) benzamide], the half-inhibitory concentration (IC50) is at most 0.1 µM.

In turn, `Cn1nnc(-c2cc(C(=O)NCCOCCOCCOCCOCCNC(=O)OC(C)(C)C)ccc2Nc2ccc(C(F)(F)F)cc2)n1` [Compound 63, tert-butyl (1-(3-(2-methyl-2H-tetrazol-5-yl)-4-((4-(trifluoromethyl)phenyl)amino)phenyl)-1-oxo-5,8,11,14-tetraoxa-2-azahexadecan-16-yl)carbamate] displayed an IC50 of 0.1 to 1 µM.

With `Cn1nnc(-c2cc(C(=O)O)ccc2Nc2cccc(C(F)(F)F)c2)n1` [Compound 4, 3-(2-methyl-2H-tetrazol-5-yl)-4-((3-(trifluoromethyl)phenyl)amino) benzoic acid], the half-maximal inhibitory concentration (IC50) is at most 0.1 µM.

In the case of `COCCC(=O)NCCOCCOCCNC(=O)c1ccc(Nc2ccc(C(F)(F)F)cc2)c(-c2nnn(C)n2)c1` [Compound 65, 3-(2-methyl-2H-tetrazol-5-yl)-N-(5-oxo-2,9,12-trioxa-6-azatetradecan-14-yl)-4-((4-(trifluoromethyl)phenyl)amino) benzamide], the half-maximal inhibitory concentration (IC50) lay within 0.1 to 1 µM.

On to `Cn1nnc(-c2cc(C(=O)O)ccc2Nc2ccc(C(F)(F)F)cc2)n1` [Compound 3, 3-(2-methyl-2H-tetrazol-5-yl)-4-((4-(trifluoromethyl)phenyl)amino) benzoic acid], for which the IC50 is at most 0.1 µM.

`O=C(O)c1ccc(Nc2ccc(C(F)(F)F)cc2)c(-c2ccccn2)c1` [Compound 39, 3-(pyridin-2-yl)-4-((4-(trifluoromethyl)phenyl)amino) benzoic acid] registered an IC50 of at most 0.1 µM.

Consider `CNC(=O)c1ccc(Nc2ccc(C(F)(F)F)cc2)c(-c2nnn(C)n2)c1` [Compound 8, N-methyl-3-(2-methyl-2H-tetrazol-5-yl)-4-((4-(trifluoromethyl)phenyl)amino) benzamide], for which the half-maximal inhibitory concentration (IC50) is at most 0.1 µM.

The molecule `O=C(O)c1ccc(Nc2ccc(C(F)(F)F)cc2)c(-c2nnn(Cc3ccccc3F)n2)c1` [Compound 25, 3-(2-(2-fluorobenzyl)-2H-tetrazol-5-yl)-4-((4-(trifluoromethyl)phenyl)amino) benzoic acid] gave an IC50 of at most 0.1 µM.

`CNC(=O)c1ccc(Nc2cccc(C(F)(F)F)c2)c(-c2nnn(C)n2)c1` [Compound 5, N-methyl-3-(2-methyl-2H-tetrazol-5-yl)-4-((3-(trifluoromethyl)phenyl)amino) benzamide] had an IC50 of at most 0.1 µM.
